Values of other authors as cited in patent publication US12622967B2, “Molecules, formulations, and methods for nutritional support of athletes, patients, and others” (Today, Inc., priority 2022, dated 2026).

Columns and labels:
[1] = systemic infusion to target 4 mM blood [lactate]; human experimentation under way, personal communication
[2] = high intensity exercise

Row | SMILES | effect on cerebral LPR (lactate/pyruvate ratio) [1] | time to be oxidized to energy [2]
1 | CC(O)C(=O)[O-].[Na+] (centres unmarked) [sodium lactate] | decreases cerebral LPR | –
2 | CC(O)C(=O)O (centres unmarked) [lactate] | – | less than 5 min
